{"source": "patent US7425548B2", "about": "“Materials and methods for immune system stimulation” (Variety Chidren's Hospital, priority 2004, dated 2008)", "key": {"[1]": {"system": "human leukemic cells (CEM)", "assay": "Cytotoxicity of RR1 treated lymphocytes (functional assay, active caspase-3)", "format": "cell-based", "conditions": "RR1 0-100 μg/ml, 24 hours, then co-incubation with CEM", "method": "Normal lymphocytes were treated with RR1 (0-100 μg/ml) for 24 hours in RPMI medium. The cells were washed and co-incubated with PKH26-labeled human leukemic CEM cells for 12 hours for the active NK cells to lyse the tumor cells. The cell mixtures were stained with FITC-labeled and activated caspase-3 monoclonal antibody. The percentage of PKH26+ and Caspase-3+ cells were quantified by analyzing in a Beckman-Coulter Elite flow cytometer (**p=0.01).\nCytotoxicity of RR1 treated lymphocytes. To evaluate the enhanced cytotoxicity of activated lymphocytes, a functional assay was adopted using RR1-activated lymphocytes as effecter cells and human leukemic cells (CEM) as targets (Liu, L. et al. Nat. Med., 2002, 8:185-189; Jerome, K. R. et al. Nat. Med., 2003, 9:4-5). Briefly, normal lymphocytes (10^6/ml) were treated with different concentrations of RR1 in RPMI medium for 24 hours in a CO2 incubator at 37° C. […] The percentage of cells killed by the activated NK cells was determined by fixing the mixture with 1 ml of 2% paraformaldehyde solution for 30 minutes on ice followed by suspending in 0.5% Tween 20 in PBS. The cell mixture was stained with 7.5 μl of anti-active caspase-3-FITC antibody (BD Biosciences, CA) for 30 minutes at room temperature, washed with PBS and analyzed in a Coulter Elite Flow Cytometer."}, "[2]": {"system": "iNOS", "assay": "iNOS induction immunoassay", "format": "cell-based, human", "conditions": "cytoplasmic extract of cells treated with RR1", "method": "Inducible Nitric Oxide Synthase (iNOS) induction and Nitric oxide (NO) synthesis. Higher and long lasting release of NO is caused by the enzyme iNOS upon stimulation with […]. The iNOS induction by RR1 stimulation was assayed by QUANTIKINE iNOS immunoassay kit (R&D systems, Minneapolis, Minn.) which employs a sandwich enzyme immunoassay technique. The iNOS was assayed from the cytoplasmic extract of the cells treated with different concentrations of RR1. The samples and standards were pipetted in to the wells of the 96-well plate and any iNOS present was bound to the immobilized antibody. After washing away the unbound substances, an enzyme linked monoclonal antibody specific for iNOS was added. After washing away the unbound antibody enzyme reagent, the color developing substrate solution was added, the color development was stopped by stop solution and the absorbance was read at 450 nm with a reference wave length of 570 nm in the Bio-Rad plate reader."}, "[3]": {"system": "I-κBα in RAW 264.7 macrophages", "assay": "I-κBα degradation, immunoblot", "format": "cell-based, mouse", "conditions": "RR1 100 μg/ml, western blot", "method": "The cells were treated with RR1 at intervals of 15, 30, and 60 minutes. Degradation of I-κBα levels in cytoplasmic lysates was determined by immunoblot analysis using antimouse I-κBα mAb. I-κBα degradation. The degradation of IκB-α is a prerequisite for the activation of NF-κB. To determine the effect of RR1 on cellular IκB-α levels and its degradation, immunoblot analysis was performed with cytosolic lysates from RR1-treated RAW 264.7 macrophages for different time periods (0, 15 minutes, 30 minutes, 1 hour). The lysates were separated by SDS-PAGE on 12% gels and transferred to nitrocellulose membranes using a TransBlot apparatus (BIO-RAD, Hercules, Calif.). The membranes were hybridized with IκB-α specific monoclonal antibodies (1:1000) by the Western blot hybridization protocol (Lebron, F. et al. J Biol Chem., 2003, 278:25001-25008) using antimouse IκB-α antibody (CELL SIGNALING TECHNOLOGY, Inc, Beverly, Mass.) using the color detection system (BIO-RAD, Hercules, Calif.)."}, "[4]": {"assay": "Water solubility", "format": "physicochemical", "method": "Isolation and characterization of RR1. […] The final RR1 compound, shown in FIG. 3, was isolated in about 0.1% yield of the total dry material used for extraction as a puffy solid that dissolved in water. […] Therefore, detailed polysaccharide analyses such as the glycosyl composition, linkage, molecular weight and conformation of the glucose units at the anomeric center were performed at the Complex Carbohydrate Research Center, University of Georgia, Athens. […] To perform glycosyl linkage analysis, the sample was permethylated three times by the method of Cikanu and Kereck (Ciucanu, I. and F. Kereck Carbohydr. Res., 1984, 131:209-217), hydrolyzed with 2 M trifluroacetic acid, reduced with NaBD4 and acetylated with acetic anhydride/pyridine and the resulted partially methylated alditol acetates (PMAA) were analyzed by GC/MS. […] The conformations at the anomeric center of the glucopyranosyl units were obtained based on the 500 MHz protonNMR spectra recorded in D2O and by comparison with the anomeric proton signals of standard samples. The molecular mass was obtained from the size exclusion chromatography using SUPELCO silica column (1.0×30 cm), eluting with 50 mM ammonium formate buffer at a rate of […]. and detected by the refractive index. […]"}}, "data": [{"substance": "(1,4)-α-D-glucan [RR1]", "values": [{"measurement": "killing of tumor cells by RR1-treated normal lymphocytes", "setting": "[1]", "value": "dose-dependent enhancement of cytotoxicity"}, {"measurement": "induction of iNOS", "setting": "[2]", "value": "did not stimulate the induction of iNOS significantly"}, {"measurement": "time to complete removal of I-κBα expression", "setting": "[3]", "value": 60, "unit": "min"}, {"measurement": "solubility in water", "setting": "[4]", "value": "soluble in water"}]}]}
